In PMC3038857, “Using Nuclear Receptor Activity to Stratify Hepatocarcinogens” (PLoS ONE, 2011):

How the values were obtained:
[1] = target: T1, ERa (ESR1) (Homo sapiens, UniProt P03372); experiment: NCGC_ERalpha_Agonist: GAL4 BLAM Reporter gene assay: ERa; assay type: cell-based; conditions: agonist mode
T1 construct: expressed in transfected cells; host or cells: HEK293
Description: These assays measure binding constants and enzyme inhibition values for nuclear receptors. The targets include [drawing 67] , [drawing 68] , [drawing 69] , [drawing 70] , [drawing 71] , [drawing 72] , [drawing 73] , [drawing 74] , [drawing 75] and [drawing 76] . Each of the nuclear receptor targets was measured in agonist mode. Assays were run at the NIH Chemical Genomics Center (Rockville, MD).
Cell-based HTS Assays: These assays measuring binding constants and enzyme inhibition values for nuclear receptors. The targets include AR, ER, FXR, LXR, PPARα, PPARδ, PPARγ, RXRα, RXRβ and PXR. Each of the nuclear receptor targets was measured in both agonist and antagonist mode, but the antagonist data is still undergoing analysis due to possible interference between cytotoxicity and assay activity, so antagonist mode data were not used in the present analysis. Assays were run at the NIH Chemical Genomics Center (Rockville, MD) as part of the Tox21 collaboration. […] The R^2 was required to be ≥0.5. Values where only the highest concentration exceeded 50% activity were excluded to eliminate weak or false positives. Detailed description of the methods, data and analysis methods for this dataset will be presented in a separate publication.

[2] = target: T1, ERa (ESR1); experiment: NCGC_ERalpha_Antagonist: GAL4 BLAM Reporter gene assay: ERa; assay type: cell-based; conditions: antagonist mode
[3] = tested on: CYP2B6; experiment: CLZD_CYP2B6: Change in expression of CYP2B6 (primary human hepatocytes); assay type: cell-based; conditions: 24 hr
Method in brief: (§1)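 Primary human hepatocyte cultures were exposed to test chemicals at 5 concentrations (0.004-40 µM) for 6, 24 or 48 hr.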

[4] = target: T2, ESR1 (estrogen receptor 1) (Homo sapiens, UniProt P03372); experiment: ATG_ERE_CIS: Factorial reporter gene assay (HepG2); assay type: cell-based
T2 construct: expressed in transfected cells; host or cells: HepG2
Description: (§2) A multiple reporter transcription unit (MRTU) library consisting of 48 transcription factor binding sites was transfected into the HepG2 human liver hepatoma cell line. In addition to the cis-acting reporter genes (CIS), a modification of the approach was used to generate a trans-system (TRANS) with a mammalian one-hybrid assay consisting of an additional 25 MRTU library reporting the activity of nuclear receptor super-family members. […] These assays were performed by Attagene Inc. (Morrisville NC) under contract to EPA.
(§3) In addition to the cis-acting reporter genes (CIS), a modification of the approach was used to generate a trans-system (TRANS) with a mammalian one-hybrid assay consisting of an additional 25 MRTU library reporting the activity of nuclear receptor super-family members. […] Chemicals were then tested in the CIS and TRANS assays at seven concentrations starting at the MTC and followed by three-fold serial dilutions. These assays were performed by Attagene Inc. (Morrisville NC) under contract to EPA. Detailed description of the methods, data and analysis methods for this dataset will be presented in a separate publication.

[5] = target: T2, ESR1 (estrogen receptor 1); experiment: ATG_ERa_TRANS: Factorial reporter gene assay (HepG2); assay type: cell-based
Description: as §2, §3

[6] = tested on: CYP1A2; experiment: CLZD_CYP1A2: Change in expression of CYP1A2 (primary human hepatocytes); assay type: cell-based; conditions: 24 hr
Method in brief: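 Cultured primary human hepatocytes treated with chemicals for 6, 24 or 48 hr across five concentrations spanning 0.004-40 µM, then transcript level measured by quantitative nuclease protection in a multiplexed format.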

[7] = target: T3, PXR (NR1I2) (Homo sapiens, UniProt O75469); experiment: ATG_PXRE_CIS: Factorial reporter gene assay (HepG2); assay type: cell-based; parameters: endogenous in cells; host or cells: HepG2
T3 sequence (O75469 1-434): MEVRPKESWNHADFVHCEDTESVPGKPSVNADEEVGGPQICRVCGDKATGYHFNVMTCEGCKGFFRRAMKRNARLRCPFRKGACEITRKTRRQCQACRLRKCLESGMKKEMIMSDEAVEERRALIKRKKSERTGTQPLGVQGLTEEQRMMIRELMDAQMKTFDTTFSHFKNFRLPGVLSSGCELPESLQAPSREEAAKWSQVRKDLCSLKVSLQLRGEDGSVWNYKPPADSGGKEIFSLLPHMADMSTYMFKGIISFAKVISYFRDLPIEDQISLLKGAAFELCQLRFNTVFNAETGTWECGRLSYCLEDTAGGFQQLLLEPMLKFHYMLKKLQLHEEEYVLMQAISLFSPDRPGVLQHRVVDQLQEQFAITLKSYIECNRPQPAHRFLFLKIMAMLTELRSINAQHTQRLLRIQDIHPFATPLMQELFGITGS
Method in brief: (§4)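 Transfected HepG2 line; multiplexed reporter read-out. PXRE = cis library (48 TF sites); ERRg/FXR/PPARg = trans one-hybrid library (25 units). Dose series of 7, MTC downward by 3x.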

[8] = tested on: CYP3A4; experiment: CLZD_CYP3A4: Change in expression of CYP3A4 (primary human hepatocytes); assay type: cell-based; conditions: 24 hr
Method in brief: as §1

[9] = target: T4, PPARG (peroxisome proliferator-activated receptor gamma) (Homo sapiens, UniProt P37231); experiment: ATG_PPARg_TRANS: Factorial reporter gene assay (HepG2); assay type: cell-based; conditions: HepG2 reporter
T4 construct: expressed in transfected cells; host or cells: HepG2
T4 sequence (P37231 1-505): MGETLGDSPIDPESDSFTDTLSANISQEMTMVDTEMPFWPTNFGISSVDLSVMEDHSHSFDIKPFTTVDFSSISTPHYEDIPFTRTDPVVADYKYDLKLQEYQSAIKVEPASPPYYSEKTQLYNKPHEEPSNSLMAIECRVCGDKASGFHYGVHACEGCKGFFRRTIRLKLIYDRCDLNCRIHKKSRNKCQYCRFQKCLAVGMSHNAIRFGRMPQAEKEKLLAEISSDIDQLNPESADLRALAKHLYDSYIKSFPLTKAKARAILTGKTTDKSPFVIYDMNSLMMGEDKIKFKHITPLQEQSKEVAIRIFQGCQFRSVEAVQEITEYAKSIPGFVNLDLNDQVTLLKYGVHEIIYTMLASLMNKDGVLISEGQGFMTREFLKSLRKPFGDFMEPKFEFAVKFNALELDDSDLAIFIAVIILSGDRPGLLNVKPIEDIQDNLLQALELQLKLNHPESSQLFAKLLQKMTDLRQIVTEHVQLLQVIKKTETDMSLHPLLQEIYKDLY
Method in brief: as §4

[10] = tested on: ABCB11; experiment: CLZD_ABCB11: Change in expression of ABCB11 (primary human hepatocytes); assay type: cell-based; conditions: 24 hr
Description: This is a collection of multiplexed gene expression assays focused on Phase I and II xenobiotic metabolizing enzymes and transporters. Human primary cell cultures were treated with chemicals at 5 concentrations (0.004-40 [drawing 42] M) for 6, 24 and 48 hr. Concentration- and time-response profiles of chemicals were measured by the expression of key nuclear receptor target genes, activities of CYP1A enzymes (EROD), and cell morphology. Fourteen gene targets were monitored by quantitative nuclease protection assay including: six representative cytochrome P-450 genes, four hepatic transporters, three Phase II conjugating enzymes, and one endogenous metabolism gene involved in cholesterol synthesis. The target genes associated with nuclear receptor pathways are as follows: [drawing 43] and [drawing 44] with [drawing 45]; [drawing 46] , [drawing 47] , [drawing 48] , [drawing 49] , [drawing 50] and [drawing 51] with [drawing 52]; [drawing 53] , [drawing 54] , [drawing 55] and [drawing 56] with [drawing 57]; [drawing 58] with [drawing 59]; and [drawing 60] with [drawing 61] . Assays were run in primary human hepatocyte cultures by CellzDirect Invitrogen Inc. (Durham, NC), in collaboration with EPA.
Multiplexed Gene Expression in Human Primary Hepatocytes: This is a collection of multiplexed gene expression assays focused on Phase I and II metabolic enzymes and transporters. […] Fourteen gene targets were monitored by quantitative nuclease protection assay: six representative cytochrome P450 genes, four hepatic transporters, three Phase II conjugating enzymes, and one endogenous metabolism gene involved in cholesterol synthesis. Cells were exposed at 5 concentrations (0.004-40 µM) for 6, 24 or 48 hr. Gene targets are sentinels for five nuclear receptor signaling pathways: AhR, CAR, PXR, FXR, and PPARα. All gene are associated with nuclear receptor pathways: CYP1A1 and CYP1A2 with AHR; ABCB1, ABCG2, CYP2B6, CYP2C9, CYP2C19 and UGT1A1 with CAR; CYP3A4, GSTA2, SLCO1B1 and SULT2A1 with PXR; HMGCS2 with PPARA; and ABCB11 with FXR. […] Detailed description of the methods, data and analysis methods for this dataset will be presented in a separate publication.

[11] = tested on: Rat Liver; conditions: chronic study, rat liver; ref ToxRefDB; cited from earlier work
[12] = target: T5, CAR (NR1I3) (Homo sapiens, UniProt Q14994); experiment: ATG_PBREM_CIS: Factorial reporter gene assay (HepG2); assay type: cell-based; parameters: endogenous in cells; host or cells: HepG2; conditions: HepG2 reporter
T5 sequence (Q14994 1-352): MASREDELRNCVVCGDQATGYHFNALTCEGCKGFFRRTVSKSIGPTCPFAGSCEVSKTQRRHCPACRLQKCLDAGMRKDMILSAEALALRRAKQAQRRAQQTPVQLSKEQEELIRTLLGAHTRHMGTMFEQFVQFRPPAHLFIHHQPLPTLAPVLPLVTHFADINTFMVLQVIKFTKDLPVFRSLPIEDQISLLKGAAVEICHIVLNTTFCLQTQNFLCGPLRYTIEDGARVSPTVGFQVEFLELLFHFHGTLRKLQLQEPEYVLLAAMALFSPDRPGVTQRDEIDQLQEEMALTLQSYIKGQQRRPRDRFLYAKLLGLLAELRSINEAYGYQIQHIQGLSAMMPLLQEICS
Description: as §2, §3

[13] = tested on: Rat Liver; conditions: chronic study, rat liver; ref ToxRefDB; cited from earlier work; remark: listed apart in the source
[14] = tested on: Rat Liver; conditions: chronic study, rat liver; ref ToxRefDB; cited from earlier work; remark: listed apart in the source

T2 sequence (P03372 whole entry): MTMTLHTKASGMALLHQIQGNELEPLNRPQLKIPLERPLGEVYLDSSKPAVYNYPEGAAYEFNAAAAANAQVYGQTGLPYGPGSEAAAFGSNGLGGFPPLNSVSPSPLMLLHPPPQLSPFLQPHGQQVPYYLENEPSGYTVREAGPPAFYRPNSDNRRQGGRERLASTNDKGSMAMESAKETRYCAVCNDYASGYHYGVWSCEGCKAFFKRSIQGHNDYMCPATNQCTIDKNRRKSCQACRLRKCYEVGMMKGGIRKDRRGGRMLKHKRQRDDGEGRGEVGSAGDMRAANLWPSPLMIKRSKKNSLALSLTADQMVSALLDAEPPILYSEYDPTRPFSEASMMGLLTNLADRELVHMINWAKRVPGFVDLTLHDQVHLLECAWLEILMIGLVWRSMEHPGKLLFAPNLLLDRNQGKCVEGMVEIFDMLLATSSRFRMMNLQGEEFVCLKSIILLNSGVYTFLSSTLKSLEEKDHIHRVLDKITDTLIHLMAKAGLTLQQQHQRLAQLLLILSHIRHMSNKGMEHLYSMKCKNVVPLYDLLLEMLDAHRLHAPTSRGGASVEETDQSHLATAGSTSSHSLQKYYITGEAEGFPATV
T1 sequence (P03372 whole entry, the tested form may be a part): as the sequence (P03372 whole entry) above

Row | SMILES | NCGC_ERalpha_Agonist [1] | NCGC_ERalpha_Antagonist [2] | CLZD_CYP2B6_24 [3] | ATG_ERE_CIS ([4]; HepG2) | ATG_ERa_TRANS ([5]; HepG2) | CLZD_CYP1A2_24 [6] | ATG_PXRE_CIS ([7]; HepG2) | CLZD_CYP3A4_24 [8] | ATG_PPARg_TRANS [9] | CLZD_ABCB11_24 [10] | ATG_ERE_CIS ([4]; HepG2 reporter) | CHR_Rat_Liver_2_PreneoplasticLesion [11] | ATG_PBREM_CIS [12] | ATG_ERa_TRANS ([5]; HepG2 reporter) | CHR_Rat_Liver_1_AnyLesion [13] | ATG_PXRE_CIS ([7]; HepG2 reporter) | CHR_Rat_Liver_3_NeoplasticLesion [14]
1 | COc1ccc(C(c2ccc(OC)cc2)C(Cl)(Cl)Cl)cc1 [row 201] | 5.406 | 4.409 | 5.24 | 5.398 | 5.569 | 5.201 | 5.036 | 4.692 |  |  |  |  |  |  |  |  | 
2 | CC(C)(C)c1ccc(CSc2cnn(C(C)(C)C)c(=O)c2Cl)cc1 [r272] |  | 5.155 |  |  |  |  |  |  | 4.854 | 5.168 | 4.959 | 0 | 5.699 | 4.367 | 0 | 5.444 | 0
